Experimental data taken from patent publication US5668133A, “Ophthalmic compositions comprising emedastine and methods for their use” (priority 1995, dated 1997).

Tested on: passive anaphylaxis in guinea pig conjunctiva
Assay: passive conjunctival anaphylaxis, i.v. antigen challenge
Format: in vivo
Method: Male Dunkin Hartley Viral Antibody Free outbred guinea pigs (Charles River Labs, Portage, Mich.), weighing approximately 250-350 grams (6/group) were injected intravenously (i.v.) via the marginal ear vein with 1.0 mL of Evans Blue dye (1.0 mg/mL). Forty-five (45) minutes post dye injection, 20 μL of test compound or saline vehicle was applied topically to one eye of each experimental animal. Thirty minutes following topical drug application, the guinea pigs were anesthetized and challenged subconjunctivally with histamine (300 ng/10 μL). Responses were quantitated as described by Yanni et al. in Int. Arch. Allergy Immunol., 101:102-106 (1993). Response scores from the treated groups were then compared with scores obtained in the saline-treated group using Dunnett's t test (Dunnett C. W., "A multiple comparison procedure for comparing treatments with a control." J. Am. Stat. Assoc. 50:1096-1121(1955)). Regression analysis was used to determine relative potency (Bliss, C. and E. Gjorgy. In Vitamin Methods, Vol. 2, pp. 445-610, Academic Press, Inc., New York, 1951.).
Emedastine difumarate was evaluated for its ability to inhibit a passive conjunctival immediate hypersensitivity response following topical ocular administration.
Guinea pigs (5-8/group) were passively sensitized with anti-ovalbumin serum injected subconjunctivally in one eye. Twenty-four hours after passive sensitization, ovalbumin (OA) was administered either i.v. or topically to the eye.
The allergic response following i.v. antigen challenge was assessed as follows: thirty minutes prior to challenge, animals received 20 μL of emedastine difumarate or saline applied topically to the eye. Guinea pigs were then challenged i.v. via the marginal ear vein with 1.0 mL of a solution containing 100 μg of OA and 1 mg of Evans Blue dye. Responses were quantitated as previously described in Example 2.

[1] = i.v. antigen challenge, 30 min before challenge

## CCOCCn1c(N2CCCN(C)CC2)nc2ccccc21 [Emedastine Difumarate, 1-(2-ethoxyethyl)-2-(4-methyl-1-homopiperazinyl)-benzimidazole]
0.001% and 0.01% solutions, 30 minutes before i.v. antigen challenge
  reduction of the allergic response: significant reductions of the allergic response
i.v. antigen challenge, 0.0001 wt %, 30 min before challenge
  % Change: -41%
i.v. antigen challenge, 0.001 wt %, 30 min before challenge
  % Change: -66%
i.v. antigen challenge, 0.01 wt %, 30 min before challenge
  % Change: -96%
[1]
  ED50: 0.00022 wt %
  ED50 (text): 0.00022%
